# Test results taken from US9187425B2, “2,5-disubstituted arylsulfonamide CCR3 antagonists” (Axikin Pharmaceuticals, Inc., priority 2009, dated 2015).
# Target: T1, CCR3 (UniProt P51677)
# T1 sequence (P51677 1-355): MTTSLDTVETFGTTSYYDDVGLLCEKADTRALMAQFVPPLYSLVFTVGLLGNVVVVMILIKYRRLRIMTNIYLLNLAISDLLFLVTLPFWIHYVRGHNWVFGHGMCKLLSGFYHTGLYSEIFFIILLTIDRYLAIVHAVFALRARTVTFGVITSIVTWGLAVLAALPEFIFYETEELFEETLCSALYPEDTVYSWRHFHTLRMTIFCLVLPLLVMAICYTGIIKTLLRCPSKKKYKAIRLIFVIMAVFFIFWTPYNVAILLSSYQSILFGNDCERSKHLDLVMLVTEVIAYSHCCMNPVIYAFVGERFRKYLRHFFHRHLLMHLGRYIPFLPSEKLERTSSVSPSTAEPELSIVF
# Experiment: CCR3 Receptor Binding Assay ([125I]-labeled human eotaxin/CCL11 displacement on cells)
# Details: 0.1 nM [125I]-labeled human eotaxin/CCL11, 60 min at room temperature, 2×10^5 cells/well
# Protocol: Cells were washed once with PBS and resuspended in a binding buffer (25 mM HEPES pH 7.6, 5 mM MgCl2, 1 mM CaCl2, 0.5% BSA, 0.1% NaN3). […] of cell suspension (2×10^5 cells/well) and 0.1 nM [^125I]-labeled human eotaxin/CCL11 (2000 Ci/mmol specific activity) were mixed in a 96-well U-bottom polypropylene plate, and incubated for 60 min at room temperature for the binding reaction. The cell suspension was then transferred to a filtration plate (#MAFB, Millipore), and washed 3 times with the binding buffer containing 0.5 M NaCl, scintillant added, and the radioactivity was counted on a TopCount (Packard). For the determination of non-specific binding, the cell suspension and [^125I]-labeled human eotaxin/CCL11 were incubated in the presence of 500 nM of unlabeled human eotaxin/CCL11. See, Iino et al., “Molecular cloning and functional characterization of cynomolgus monkey (Macaca fascicularis) CC chemokine receptor, CCR3,” Cytokine 2002, 19, 276-286.
# Biological results are summarized in Table 1, wherein A represents a value no greater than 50 nM, and B represents a value greater than 50 nM but no greater than 500 nM, C represents a value greater than 500 nM but no greater than 5 μM, and D represents a value greater than 5 μM.
row,Ki [µM],Structure (SMILES)
1,0.05 to 0.5,N#Cc1ccc(Sc2cc(Cl)cc(Cl)c2)c(S(=O)(=O)N2CCCCC2)c1 [Compound 1]
2,> 5,N#Cc1ccc([S+]([O-])c2cc(Cl)cc(Cl)c2)c(S(=O)(=O)N2CCCCC2)c1 (stereo not drawn) [Compound 2]
3,> 5,N#Cc1ccc(S(=O)(=O)c2cc(Cl)cc(Cl)c2)c(S(=O)(=O)N2CCCCC2)c1 [Compound 3]
4,≤ 0.05,Cc1cc(C)cc(Sc2ccc(C#N)cc2S(=O)(=O)N2CCCCC2)c1 [Compound 4]
5,> 5,Cc1cc(C)cc(Sc2ccc(C#N)cc2S(=O)(=O)N2CCC(C)CC2)c1 [Compound 5]
6,> 5,CC1CCN(S(=O)(=O)c2cc(C#N)ccc2Sc2cc(Cl)cc(Cl)c2)CC1 [Compound 6]
7,≤ 0.05,N#Cc1ccc(Sc2cc(Cl)cc(Cl)c2)c(S(=O)(=O)N2CCC(F)CC2)c1 [Compound 7]
8,> 5,CC1CC(C)CN(S(=O)(=O)c2cc(C#N)ccc2Sc2cc(Cl)cc(Cl)c2)C1 (stereo not drawn) [Compound 8]
9,≤ 0.05,N#Cc1ccc(Sc2cc(Cl)cc(Cl)c2)c(S(=O)(=O)N2CCNC(=O)C2)c1 [Compound 9]
10,≤ 0.05,Cc1cc(C)cc(Sc2ccc(C#N)cc2S(=O)(=O)N2CCNC(=O)C2)c1 [Compound 10]
11,≤ 0.05,N#Cc1ccc(Sc2cc(Cl)cc(Cl)c2)c(S(=O)(=O)N2CCNC(=O)C2)c1 [Compound 11]
12,≤ 0.05,N#Cc1ccc(Sc2cc(Cl)cc(Cl)c2)c(S(=O)(=O)N2CCOCC2)c1 [Compound 12]
13,≤ 0.05,N#Cc1ccc(Sc2cc(Cl)cc(Cl)c2)c(S(=O)(=O)N2CCSCC2)c1 [Compound 13]
14,≤ 0.05,N#Cc1ccc(Sc2cc(Cl)cc(Cl)c2)c(S(=O)(=O)N2CCS(=O)(=O)CC2)c1 [Compound 14]
15,> 5,Cc1cc(C)cc(Sc2ccc(C#N)cc2S(=O)(=O)N2CCSCC2)c1 [Compound 16]
16,≤ 0.05,Cc1cc(C)cc(Sc2ccc(C#N)cc2S(=O)(=O)N2CCS(=O)(=O)CC2)c1 [Compound 17]
17,0.5 to 5,N#Cc1ccc(Sc2cc(C(F)(F)F)cc(C(F)(F)F)c2)c(S(=O)(=O)N2CCOCC2)c1 [Compound 18]
18,> 5,N#Cc1ccc(Sc2cc(C(F)(F)F)cc(C(F)(F)F)c2)c(S(=O)(=O)N2CCSCC2)c1 [Compound 19]
19,> 5,N#Cc1ccc(Sc2cc(C(F)(F)F)cc(C(F)(F)F)c2)c(S(=O)(=O)N2CCS(=O)(=O)CC2)c1 [Compound 20]
20,0.05 to 0.5,N#Cc1ccc(Sc2cc(Cl)cc(Cl)c2)c(S(=O)(=O)N2CCSCC2)c1 [Compound 21]
21,≤ 0.05,N#Cc1ccc(Sc2cc(Cl)cc(Cl)c2)c(S(=O)(=O)N2CCS(=O)(=O)CC2)c1 [Compound 23]
22,> 5,O=[N+]([O-])c1ccc(Sc2cc(Cl)cc(Cl)c2)c(S(=O)(=O)N2CCSCC2)c1 [Compound 24]
23,> 5,Cc1cc(C)cc(Sc2ccc([N+](=O)[O-])cc2S(=O)(=O)N2CCSCC2)c1 [Compound 25]
24,> 5,Cc1cc(C)cc(Sc2ccc(C#N)cc2S(=O)(=O)N2CCS(=O)(=O)CC2)c1 [Compound 26]
25,≤ 0.05,CC1CN(S(=O)(=O)c2cc(C#N)ccc2Sc2cc(Cl)cc(Cl)c2)CCN1 (stereo not drawn) [Compound 27]
26,≤ 0.05,CC1CN(S(=O)(=O)c2cc(C#N)ccc2Sc2cc(Cl)cc(Cl)c2)CC(C)N1 (stereo not drawn) [Compound 28]
27,≤ 0.05,CC1CN(S(=O)(=O)c2cc(C#N)ccc2Sc2cc(Cl)cc(Cl)c2)CC(C)N1 (stereo not drawn) [Compound 29]
28,≤ 0.05,O=[N+]([O-])c1ccc(Sc2cc(Cl)cc(Cl)c2)c(S(=O)(=O)N2CCS(=O)(=O)CC2)c1 [Compound 30]
29,≤ 0.05,CC(C)N1CCN(S(=O)(=O)c2cc(C#N)ccc2Sc2cc(Cl)cc(Cl)c2)CC1=O [Compound 31]
30,≤ 0.05,COC(=O)C1CN(S(=O)(=O)c2cc(C#N)ccc2Sc2cc(Cl)cc(Cl)c2)CCN1 (stereo not drawn) [Compound 32]
